In US11344507B2, “Topical compositions containing low molecular weight chitosan derivatives” (ALUMEND, LLC, priority 2019, dated 2022):
Blank lines part the entries; values can stand above or below the compound they belong to.

Columns and labels:
[1] = tested on: IL-1α secretion by three-dimensional human epidermal equivalents (EPI-200); settings: 24 h
Protocol: Test materials (30 μl) were topically applied onto three-dimensional human epidermal equivalents (EPI-200 from MatTek, Ashland, Mass.), n=3 tissues per treatment group.

[2] = tested on: IL-1α secretion by three-dimensional human epidermal equivalents (EPI-200)
[3] = tested on: three-dimensional human epidermal equivalents (EPI-200); assay: In vitro Skin Irritation Test, SDS-induced irritation: MTT tissue viability; settings: for Mean of viability (%): MTT after 42 hr post-exposure

IL-1α (pg/mL) = Average IL1α (pg/mL) treated tissue minus Average IL1α (pg/mL) negative control [1]: 98.301 pg/mL
SMILES: CC1=C(/C=C/C(C)=C/C=C/C(C)=C/CO)C(C)(C)CCC1 [Retinol, retinol]

SMILES: CCCCCCCCCCCCOS(=O)(=O)[O-].[Na+] [SDS, sodium dodecyl sulfate]
irritant classification by IL-1α results [2]: irritant
Mean of viability (%) ([3]; 0.2% SDS, alone or applied after dried 1% OsC): 74.75%
Mean of viability (%) ([3]; 0.4% SDS, alone or applied after dried 1% OsC): 73.04%
Mean of viability (%) ([3]; 0.6% SDS, alone or applied after dried 1% OsC): 19.21%
irritant classification by MTT assay (cut-off 50% viability) ([3]; 0.6% SDS, alone or combined with OsC): irritant
Mean of viability (%) ([3]; test agent alone (OsC 1%; PC = 5% SDS)): 3.12%
